Values joined by “and” are separate entries in the source; they are usually repeats but may differ in a detail not shown here. Identical values can stand only once.
Experiment: Cytotoxicity battery in human hepatoma cells
Assay type: cell-based
Details: HepG2 human hepatoma cells, after 24 h, read-out: cytotoxic concentrations
Experimental: The concentration ranges of the drugs were chosen according to their solubility and their plasma level. Each drug was dissolved in DMSO. The final concentration of DMSO was 0.1% or 0.2% in the medium for both samples and corresponding controls. […] All drug solutions in medium were freshly prepared and protected from light. SAL was tested in seven concentrations from 0.39 to 25 µg/mL. Tiamulin was added in two concentrations (1 and 10 µg/mL) or just one concentration (1 µg/mL) to cell lines or human hepatocytes, respectively. Prednisolone was tested in one concentration—1 µg/mL independent of the type of cells. […] The cytotoxicity was assessed after 24 and 48 h of exposure of cell lines or after 12 and 24 h exposure of PHH. […]
The metabolic activity of living cells was assessed by measuring the activity of dehydrogenases. […] The plate was shaken for 15 min at room temperature and transferred to a microplate reader to measure the absorbance at 570 nm, using a blank as a reference. Cytotoxicity was expressed as a percentage of the negative control (0.1% or 0.2% DMSO).
The assay, based on staining of living cells by neutral red (NR), was performed according to the protocol described by Borenfreund and Puerner. […] After 10 min of shaking, the absorbance of the dissolved NR was measured at 540 nm using a blank as a reference. […]

For `CC[C@@H](C(=O)[C@@H](C)[C@@H](O)[C@H](C)[C@@H]1O[C@@H]([C@@H](CC)C(=O)O)CC[C@@H]1C)[C@H]1O[C@]2(C=C[C@@H](O)[C@]3(CC[C@@](C)([C@H]4CC[C@](O)(CC)[C@H](C)O4)O3)O2)[C@H](C)C[C@@H]1C` [SAL, salinomycin], the EC50 at 24 h was 800 nM to 20.5 µM and 0.6 µg/mL to 15.4 µg/mL.

Source: publication PMC7179450, “Primary Human Hepatocytes, But not HepG2 or Balb/c 3T3 Cells, Efficiently Metabolize Salinomycin and Are Resistant to Its Cytotoxicity” (Molecules, 2020)
